Reference: patent US20080206198A1, “Compounds and methods for pharmico-gene therapy of epithelial sodium channel associated disorders” (priority 2003, published 2008)
Peptide text beside a SMILES is read from it. * marks the point of attachment. Cbz = O=C(OCc1ccccc1)*

Legend:
HeLa cells = experiment: AAV2 FLAG-Luc transduction of HeLa cells (luciferase screen); type: cell-based, human; conditions: for concentration at which transduction was enhanced: HeLa cells
Description: (§1) A. To screen for agents that enhance rAAV transduction, any number of cells can be used. A range of concentrations of the agent to be tested can be determined based on, for instance desirable profiles of the agent, desirable toxicity profiles of the agent and/or concentration of the agents employed in vivo. The usefulness of the cell type chosen for the screen can be confirmed by testing compounds, e.g., proteasome inhibitors such as LLnL and ZLL which are known to increase rAAV transduction. For example, a AAV2 FLAG-Luc vector was employed to transduce HeLa, ferret fibroblasts, IB3 and Huh (liver) cells in the presence or absence of the proteasome inhibitor MG132. MG132 was confirmed to enhance AAV transduction in all cell types tested: HeLa cell transduction was enhanced about 500-fold at 80 μM, and 200-fold at 40 μM, MG132; ferret fibroblast cell transduction was enhanced about 200-fold at 20 μM, and 17-fold at 4 μM, MG132; IB3-1 cell transduction was enhanced about 30 to 70-fold at 20 to 80 μM MG132; and Huh-7 cell transduction was enhanced about 15-fold at 20 to 80 μM MG132. There was no difference in rAAV transduction efficiency in HeLa cells when either DMSO or ETOH was used as a vehicle for MG132. B. HeLa cells were selected to screen for additional agents that enhance rAAV transduction, although any cell strain or line; or primary cells, may be employed. […] The range of concentrations of the agents to be tested were selected based on solubility profiles, toxicity profiles and/or concentrations previously employed in vivo.
HeLa cells were infected for 2 hours with an MOI of 100 rAAV in the presence of agents, e.g., ritonavir (Norvir) (1, 10 and 100 μM), cyclosporin A (2.5, 25 and 250 μg/ml), epoxomicin (1, 10 and 50 μM), alcacinomycin A (5, 50 or 500 μM), chymostatin (1, 10 and 100 μM), bestatin (1, 10 and 100 μM), doxorubicin (adriamycin) (0.1, 1 and 10 μM), camptothecin (camptosar) (1, 10 and 100 μM), eicosapentanoic acid (1, 10 and 100 μM), tannic acid (2, 20, 200 and 2000 μM), simvastatin, prodrug (2, 20 and 200 μM), cisplatin (0.2, 2 and 20 μg/mL), and chloroquine (4, 40 and 400 μM). Forty-eight hours after infection, cells were harvested for analysis. rAAV transduction was measured by removing the media from the cell cultures, adding 100 μL reporter lysis buffer (RLB) and freezing. The supernatant was thawed and transferred to microfuge tubes, freeze thawed an additional 2 times, clarified by centrifugation for 10 minutes and then analyzed for reporter gene expression on the lumometer. Protein was determined by Bradford analysis and results were expressed as relative light units per mg protein (RLU/mg).
Based on results with doxorubicin, a small number of FDA approved anthracyclines were tested for their relative in vitro and in vivo activities on AAV transduction. HeLa cells were infected with 100 ppc AAV2FLAG-Luc for 2 hours in the presence of different anthracyclines, e.g., doxorubicin, daunarubicin (Cerubidine), epirubicin (Ellence™), and idarubicin (Idamycin®), and cells harvested 48 hours later. The anthracyclines were pharmaceutical grade, and prepared according to the manufacturer's instructions. Prior to use, the agents were diluted in sterile water to an equal mass, e.g., 0.6 μg/mL, 3 μg/mL and 6 μg/mL. For example, 3 μg/mL idamycin increased luciferase expression by over 5000-fold while doxorubin increased luciferase expression by 58-fold. Generally, the potency was as follows: idarubicin>daunarubicin>epirubicin>doxorubicin.

ferret fibroblasts = experiment: rAAV transduction of ferret fibroblasts; type: cell-based; conditions: for concentration at which transduction was enhanced: ferret fibroblast cells
Description: as §1
(§2) C. To determine whether combinations of agents that enhance rAAV transduction efficiency have synergistic or additive effects when used in combination, cells were contacted with the proteasome modulator, doxorubicin, and the proteasome inhibitor Z-LLL or LLnL. Different AAV vectors were tested, including splicing vectors and pseudotyped rAAV. Viral stocks utilized were as follows: Av2RSVluc, 5×10^8 particle/μl; Av2RSVlucCap5 (also referred to as Av2/5 CMVLuc), 2×10^9 particle/μl; Av2CMVluc, 1.3×10^9 particle/μl; and Av2CMVlucCap5, 1.1×109 particle/μl. Combinations of agents were compared to the agents used alone to determine the efficiency of transduction. LLnL was used at 40, 200 or 400 μM, Z-LLL at 4 μM and doxorubicin at 0.5 or 1 μM when employed alone. When a combination of LLnL and doxorubicin was used, LLnL was used at 4, 10, 20, 40, 200 or 400 μM and doxorubicin at 1 or 5 μM. The apical surface of polarized airway epithelia, HeLa cells or ferret fibroblast was contacted with the agents and rAAV (5×10^9 particles per well).

IB3 cells = experiment: AV2Luc and AV2/5Luc transduction of IB3 cells; type: cell-based, human; conditions: 24 hours post-infection
Description: (§3) LLnL and Z-LLL are two tripeptidyl aldehydes shown to inhibit calpains, cathepsins, cysteine proteases as well as the chymotrypsin-like protease activity of proteasomes (Wagner et al., 2002; Donkor, 2000; Sasaki et al., 1990). […] Both classes of proteasome inhibitors bind tightly to the proteasome complex. Dose response curves for these two proteasome-modulating agents were evaluated on IB3, A549, Hela, and primary fibroblasts. The responses were consistent for a number of cell lines and for three different promoters driving luciferase expression. For one set, CMV-driven luciferase constructs with an AAV2-based genome were employed that were packaged into AV2 or AV5 capsids. Cells were infected at various doses of AV2Luc and AV2/5Luc (MOIs 100 to 1000 particles/cell). At the time of infection, cells were treated with various concentrations of LLnL or Doxorubicin and gene expression was assayed at 24 hours post-infection. The effect of proteasome inhibitors on nuclear uptake of virus was evaluated using a previously-described protocol for fractionating viral DNA in the cytoplasm and nucleus (Xiao et al., 2002). Viral DNA content in the cytoplasmic and nuclear fractions was then evaluated by slot blot hybridization against a Luciferase DNA probe.

[1] = test system: primary fetal fibroblasts; experiment: rAAV transduction of primary fetal fibroblasts; type: cell-based; conditions: data not shown
Description: Hela, A549, IB3, and primary fetal fibroblasts were evaluated for AV2Luc and AV2/5Luc transduction in the presence of LLnL, Dox, or LLnL+Dox at various concentrations. The data shown is from Hela and A549 cells at the most optimal dose combination that induces rAV2Luc transduction to a greater extent than each compound alone.

A549 cells = experiment: rAAV transduction of A549 cells; type: cell-based, human; conditions: for induction of rAAV transduction: 24 hours post-infection
Description: as §2, §3

CC(C)C[C@@H](C=O)NC(=O)[C@H](CC(C)C)NC(=O)[C@H](CC(C)C)NC(=O)OCc1ccccc1 [Z-LLL, N-carbobenzoxyl-L-leucinyl-L-leucinyl-L-leucinal] (Cbz-Leu-Leu-Leu-aldehyde)
enhancement of HeLa cell transduction (HeLa cells; 40 μM): about 200 fold | enhancement of HeLa cell transduction (HeLa cells; 80 μM): about 500 fold | enhancement of ferret fibroblast cell transduction (ferret fibroblasts; 4 μM): ~17 fold | enhancement of ferret fibroblast cell transduction (ferret fibroblasts; 20 μM): about 200 fold

COc1cccc2c1C(=O)c1c(O)c3c(c(O)c1C2=O)C[C@@](O)(C(=O)CO)C[C@@H]3O[C@H]1C[C@H](N)[C@H](O)[C@H](C)O1 [doxorubicin]
induction of rAAV transduction (IB3 cells): 200 fold | induction of transduction [1]: most significantly enhances transduction | result in cell line screening (HeLa cells): tested positive | increase in luciferase expression (HeLa cells; 3 μg/mL, 100 ppc AAV2FLAG-Luc, harvest 48 hours): 58 fold | order of potency among anthracyclines (HeLa cells; 0.6, 3 and 6 μg/mL): idarubicin>daunarubicin>epirubicin>doxorubicin | concentration at which transduction was enhanced (HeLa cells): 1 µM | dose dependence of transduction (HeLa cells; dose ranges tested): dose-dependent increase in transduction | concentration at which transduction was enhanced (A549 cells): 5 µM | induction of rAAV transduction (A549 cells): 200 fold | concentration at which transduction was enhanced (ferret fibroblasts): 1 µM | enhancement of transduction (ferret fibroblasts; ferret fibroblasts infected with lacZ splicing vectors): about 100 fold

N-acetyl-L-leucinyl-L-leucinal-L-norleucinal [LLnL]
induction of rAAV transduction (IB3 cells): > 200 fold | induction of transduction [1]: 10 fold | concentration at which transduction was enhanced (HeLa cells): 40 µM | concentration at which transduction was enhanced (A549 cells): 200 to 400 µM | induction of rAAV transduction (A549 cells): 10-fold lower levels of induction | concentration at which transduction was enhanced (ferret fibroblasts): 40 µM
